Data published in patent publication US9062072B2, “Inhibitors of HIF and angiogenesis” (Emory University, priority 2010, dated 2015).
Like-named read-outs stand apart in the source and are kept apart here. Blank lines part the entries; values can stand above or below the molecule they belong to.

Test system: HIF-1-mediated transcription
Test: HIF-1-mediated transcription under hypoxia, LN229-HRE-Lux luciferase reporter assay
Assay type: cell-based, human
Conditions: 24 h, LN229-HRE-Lux cells, hypoxia (1% O2), 24 h
Experimental: The synthesized analogues were evaluated for their potential to inhibit HIF-1-mediated transcription under hypoxia (1% O2) using a human glioma cell line LN229-HRE-Lux, which stably expresses a hypoxia-responsive luciferase reporter gene (Table 1-9). […] The compounds were tested in single (n=1) or multiple (n>1) independent experiments each carried out in quadruplicate.
LN229-HRE-luciferase human glioblastoma cells were used to perform the assay. […] 48-well plates were seeded with 3.10^4 cells per well and incubated under normoxic conditions for 24 h. Cells were then pre-treated with different concentrations of KCN-1 or its analogues for 1 h and then transferred to hypoxic conditions. After 24 h, media was aspirated, cells were lysed and reporter activity was measured in the lysate using Luciferase Assay System (Promega, Madison, Wis.) with 20/20^n Luminometer (Promega).

[1] = Homo sapiens, Table 1, read-out: IC50
[2] = Homo sapiens, Table 2, read-out: IC50
[3] = Homo sapiens, Table 3, read-out: IC50
[4] = Homo sapiens, Table 4, read-out: IC50
[5] = Homo sapiens, Table 5, read-out: IC50

SMILES: COc1ccc(NCc2ccc3c(c2)C=CC(C)(C)O3)cc1OC [Compound 2a, (3,4-Dimethoxy-phenyl)-(2,2-dimethyl-2H-chromen-6-ylmethyl)-amine]
IC50 [1]: 3000 nM

SMILES: Cc1ccc(NCc2ccc3c(c2)C=CC(C)(C)O3)c(C)c1 [Compound 2c, (2,2-Dimethyl-2H-chromen-6-ylmethyl)-(2,4-dimethyl-phenyl)-amine]
IC50 [1]: > 25000 nM

SMILES: CC1(C)C=Cc2cc(CNc3ccc(C(=O)O)cc3)ccc2O1 [Compound 2d, 4-[(2,2-Dimethyl-2H-chromen-6-ylmethyl)-amino]-benzoic acid]
IC50 [1]: > 25000 nM

SMILES: CC1(C)C=Cc2cc(CNc3ccccc3Br)ccc2O1 [Compound 2e, (2-Bromo-phenyl)-(2,2-dimethyl-2H-chromen-6-ylmethyl)-amine]
IC50 [1]: > 25000 nM

SMILES: CC1(C)C=Cc2cc(CNc3ccccc3F)ccc2O1 [Compound 2f, (2,2-Dimethyl-2H-chromen-6-ylmethyl)-(2-fluoro-phenyl)-amine]
IC50 [1]: > 25000 nM

SMILES: COc1ccc(N(C)Cc2ccc3c(c2)C=CC(C)(C)O3)cc1OC [Compound 3a, (3,4-Dimethoxy-phenyl)-(2,2-dimethyl-2H-chromen-6-ylmethyl)-methylamine]
IC50 [1]: 5000 nM

SMILES: CN(Cc1ccc2c(c1)C=CC(C)(C)O2)c1ccccn1 [Compound 3b, (2,2-Dimethyl-2H-chromen-6-ylmethyl)-methyl-pyridin-2-yl-amine]
IC50 [1]: 8400 nM

SMILES: Cc1ccc(N(C)Cc2ccc3c(c2)C=CC(C)(C)O3)c(C)c1 [Compound 3c, (2,2-Dimethyl-2H-chromen-6-ylmethyl)-(2,4-dimethyl-phenyl)-methyl-amine]
IC50 [1]: 2600 nM
IC50 (Homo sapiens, read-out: IC50): 2600 nM

SMILES: COc1ccc(S(=O)(=O)N(Cc2ccc3c(c2)C=CC(C)(C)O3)C(C)C)cc1OC [Compound 5a, N-(2,2-Dimethyl-2H-chromen-6-ylmethyl)-N-isopropyl-3,4-dimethoxy-benzenesulfonamide]
IC50 [2]: 3100 nM

SMILES: C#CCN(Cc1ccc2c(c1)C=CC(C)(C)O2)S(=O)(=O)c1ccc(OC)c(OC)c1 [Compound 5b, N-(2,2-Dimethyl-2H-chromen-6-ylmethyl)-3,4-dimethoxy-N-prop-2-ynyl-benzenesulfonamide]
IC50 [2]: 1300 nM
IC50 (Homo sapiens, read-out: IC50): 1300 nM

SMILES: CCCCN(Cc1ccc2c(c1)C=CC(C)(C)O2)S(=O)(=O)c1ccc(OC)c(OC)c1 [Compound 5c, N-Butyl-N-(2,2-dimethyl-2H-chromen-6-ylmethyl)-3,4-dimethoxy-benzenesulfonamide]
IC50 [2]: 3300 nM
IC50 (Homo sapiens, read-out: IC50): 3300 nM

SMILES: COc1ccc(S(=O)(=O)N(Cc2ccc3c(c2)C=CC(C)(C)O3)C2CC2)cc1OC [Compound 5h, Cyclopropyl-N-(2,2-dimethyl-2H-chromen-6-ylmethyl)-3,4-dimethoxy-benzenesulfonamide]
IC50 (Table 2, read-out: IC50): 1500 nM

SMILES: COc1ccc(S(=O)(=O)N(Cc2ccc3c(c2)CC(C)(C)O3)C2CCCCC2)cc1OC [Compound 16e, N-Cyclohexyl-N-((2,2-dimethyl-2,3-dihydrobenzofuran-5-yl)methyl)-3,4-dimethoxybenzenesulfonamide]
IC50 (Homo sapiens, Table 5): 8200 nM
IC50 (Homo sapiens): 8200 nM

Second part, the molecule after the results:

IC50 [2]: 3500 nM
IC50 (Homo sapiens, read-out: IC50): 3500 nM
SMILES: COc1ccc(S(=O)(=O)N(Cc2ccc3c(c2)C=CC(C)(C)O3)C(C)(C)C)cc1OC [Compound 5d, N-tert-Butyl-N-(2,2-dimethyl-2H-chromen-6-ylmethyl)-3,4-dimethoxy-benzenesulfonamide]

IC50 [2]: 3400 nM
SMILES: C=CCN(Cc1ccc2c(c1)C=CC(C)(C)O2)S(=O)(=O)c1ccc(OC)c(OC)c1 [Compound 5e, N-Allyl-N-(2,2-dimethyl-2H-chromen-6-ylmethyl)-3,4-dimethoxy-benzenesulfonamide]

IC50 [2]: 1600 nM
SMILES: COc1ccc(S(=O)(=O)N(CCC(C)C)Cc2ccc3c(c2)C=CC(C)(C)O3)cc1OC [Compound 5f, N-(2,2-Dimethyl-2H-chromen-6-ylmethyl)-3,4-dimethoxy-N-(3-methyl-butyl)-benzenesulfonamide]

IC50 [2]: 500 nM
IC50 (Homo sapiens, read-out: IC50): 1600 nM
SMILES: COc1ccc(S(=O)(=O)N(Cc2ccc3c(c2)C=CC(C)(C)O3)C2CCCC2)cc1OC [Compound 5g, N-Cyclopentyl-N-(2,2-dimethyl-2H-chromen-6-ylmethyl)-3,4-dimethoxy-benzenesulfonamide]

IC50 [2]: 4000 nM
SMILES: COc1ccc(S(=O)(=O)N(Cc2ccc3c(c2)C=CC(C)(C)O3)C2CCCCC2)cc1OC [Compound 5i, N-Cyclohexyl-N-(2,2-dimethyl-2H-chromen-6-ylmethyl)-3,4-dimethoxy-benzenesulfonamide]

IC50 [3]: 600 nM
SMILES: COc1ccc(S(=O)(=O)N(Cc2ccc3c(c2)C=CC(C)(C)O3)c2ccccc2)cc1 [Compound 5j, N-((2,2-Dimethyl-2H-chromen-6-yl)methyl)-4-methoxy-N-phenylbenzenesulfonamide]

IC50 [3]: 500 nM
IC50 (Homo sapiens, read-out: IC50): 600 nM
SMILES: Cc1cc(C)cc(S(=O)(=O)N(Cc2ccc3c(c2)C=CC(C)(C)O3)c2ccccc2)c1 [Compound 5k, N-((2,2-Dimethyl-2H-chromen-6-yl)methyl)-3,5-dimethyl-N-phenylbenzenesulfonamide]

IC50 [3]: 2100 nM
SMILES: CC1(C)C=Cc2cc(CN(c3ccccc3)S(=O)(=O)c3cc(Cl)ccc3Cl)ccc2O1 [Compound 5l, 2,5-Dichloro-N-((2,2-dimethyl-2H-chromen-6-yl)methyl)-N-phenylbenzenesulfonamide]

IC50 [3]: > 25000 nM
SMILES: CC1(C)C=Cc2cc(CN(c3ccccc3)S(=O)(=O)c3ccc(Br)cc3OC(F)(F)F)ccc2O1 [Compound 5m, 4,4-Bromo-N-((2,2-dimethyl-2H-chromen-6-yl)methyl)-N-phenyl-2-(trifluoromethoxy)benzenesulfonamide]

IC50 [4]: 3100 nM
IC50 (Homo sapiens, read-out: IC50): 2200 nM
SMILES: CCC1(C)C=Cc2cc(CN(c3ccccc3)S(=O)(=O)c3ccc(OC)c(OC)c3)ccc2O1 (stereo not shown) [Compound 10, N-((2-Ethyl-2-methyl-2H-chromen-6-yl)methyl)-3,4-dimethoxy-N-phenylbenzenesulfonamide]

IC50 [4]: 1300 nM
IC50 (Homo sapiens, read-out: IC50): 3500 nM
SMILES: COc1ccc(S(=O)(=O)N(Cc2cnc3ccccc3c2)c2ccccc2)cc1OC [Compound 13, 3,4-Dimethoxy-N-phenyl-N-(quinolin-3-ylmethyl)benzenesulfonamide]

IC50 [5]: 500 nM
SMILES: COc1ccc(S(=O)(=O)N(Cc2ccc3c(c2)CC(C)(C)O3)c2ccccc2)cc1OC [Compound 16a, N-((2,2-Dimethyl-2,3-dihydrobenzofuran-5-yl)methyl)-3,4-dimethoxy-N-phenylbenzenesulfonamide]

IC50 [5]: 9100 nM
IC50 (Homo sapiens, read-out: IC50): 9100 nM
SMILES: COc1ccc(S(=O)(=O)N(Cc2ccc3c(c2)CC(C)(C)O3)C2CCCCCC2)cc1OC [Compound 16b, N-Cycloheptyl-N-((2,2-dimethyl-2,3-dihydrobenzofuran-5-yl)methyl)-3,4dimethoxybenzenesulfonamide]

IC50 [5]: 1500 nM
SMILES: COc1ccc(S(=O)(=O)N(Cc2ccc3c(c2)CC(C)(C)O3)C(C)C)cc1OC [Compound 16c, N-((2,2-dimethyl-2,3-dihydrobenzofuran-5-yl)methyl)-N-isopropyl-3,4-dimethoxybenzenesulfonamide]

IC50 [5]: 600 nM
SMILES: CCCCN(Cc1ccc2c(c1)CC(C)(C)O2)S(=O)(=O)c1ccc(OC)c(OC)c1 [Compound 16d, N-Butyl-N-((2,2-dimethyl-2,3-dihydrobenzofuran-5-yl)methyl)-3,4-dimethoxybenzenesulfonamide]

IC50 [5]: 400 nM
IC50 (Homo sapiens, read-out: IC50): 400 nM
SMILES: COc1ccc(S(=O)(=O)N(Cc2ccc3c(c2)CC(C)(C)O3)C2CCCC2)cc1OC [Compound 16f, N-Cyclopentyl-N-((2,2-dimethyl-2,3-dihydrobenzofuran-5-yl)methyl)-3,4-dimethoxybenzenesulfonamide]
